Source: patent US8309550B2, “Kinase inhibitors and their use as pharmaceutical agents” (Shanghai Genomics, Inc., priority 2011, dated 2012)
pIC50: −log10 of the molar value.

Experiments:
CDK1/cyclinB = target: T1, CDK1/cyclinB (Homo sapiens, UniProt P06493); test: Z'-LYTE kinase assay CDK1/cyclinB; assay type: biochemical; details: read-out: Kinase inhibition, IC50 CDK1B
T1 construct: purchased Invitrogen PV3292
Procedure: (§1) Kinase assays. The compounds from the example above were tested for their ability to inhibit kinases. Recombinant human CDK2/cyclinA (PV3267), CDK1/cyclinB (PV3292), CDK5/p35 (PV3000) and Aurora A (PV3612) were purchased from Invitrogen (Carlsbad, Calif., USA). Kinase dosage and Z′-LYTE™ substrate for each kinase assay is as follows: CDK2/cyclinA-8 ng/reaction, Ser/Thr 12 Peptide; CDK1/cyclinB-0.8 ng/reaction, Ser/Thr 12 Peptide, CDK5/p35-0.8 ng/reaction, Ser/Thr 12 Peptide, and Aurora A-16 ng/reaction, Ser/Thr 1 Peptide. All enzymatic assays were performed using Z′-LYTE™ Kinase Assay Kits and were carried out following protocols provided by Invitrogen. To prepare stock solutions, compounds were dissolved at 10 mM in 100% DMSO and stored at 4° C. in amber glass vials. Enzyme reactions were initiated by adding recombinant enzyme and Z′-LYTE™ Ser/Thr peptide substrate and ATP mixture to 384-well plates containing diluted test compounds. Kinase and corresponding peptide substrate were incubated for 1 hr at room temperature in the presence of varying amounts of test compound with reaction buffer (20 μM ATP, […] [pH 7.5], 5 mM MgCl2, 0.5 mM EGTA, 0.005% Brij-35). Development buffer was added and incubated for another one hour at room temperature. Reactions were terminated by addition of stop buffer, and fluorescence emission intensity ratio 445 nm/520 nm (excited at 400 nm) was quantified by VICTOR-3 Multilabel Reader (Perkin-Elmer, Waltham, Mass., USA). Phosphorylation was calculated from the emission ratio. IC50 was determined using Sigmoid curve-fitting software Origin 6.0 (MicroCal, LLC, Northampton, Mass., USA).

CDK2/cyclinA = target: T2, CDK2/cyclinA (Homo sapiens, UniProt P24941); test: Z'-LYTE kinase assay CDK2/cyclinA; assay type: biochemical; details: read-out: Kinase inhibition, IC50 CDK2A
T2 construct: purchased Invitrogen PV3267
Procedure: as §1

CDK5/p35 = target: T3, CDK5/p35 (Homo sapiens, UniProt Q00535); test: Z'-LYTE kinase assay CDK5/p35; assay type: biochemical; details: read-out: Kinase inhibition, IC50 CDK5/p35
T3 construct: purchased Invitrogen PV3000
T3 sequence (Q00535 whole entry): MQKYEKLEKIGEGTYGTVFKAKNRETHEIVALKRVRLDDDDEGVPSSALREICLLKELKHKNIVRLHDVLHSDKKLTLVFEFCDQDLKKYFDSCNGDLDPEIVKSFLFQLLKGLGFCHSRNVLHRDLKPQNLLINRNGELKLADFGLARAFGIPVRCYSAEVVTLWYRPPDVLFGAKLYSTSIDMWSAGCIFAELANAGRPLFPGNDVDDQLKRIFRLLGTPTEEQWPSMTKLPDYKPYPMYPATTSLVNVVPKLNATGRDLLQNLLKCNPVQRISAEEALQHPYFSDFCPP
T3 sequence (Q15078 whole entry partner): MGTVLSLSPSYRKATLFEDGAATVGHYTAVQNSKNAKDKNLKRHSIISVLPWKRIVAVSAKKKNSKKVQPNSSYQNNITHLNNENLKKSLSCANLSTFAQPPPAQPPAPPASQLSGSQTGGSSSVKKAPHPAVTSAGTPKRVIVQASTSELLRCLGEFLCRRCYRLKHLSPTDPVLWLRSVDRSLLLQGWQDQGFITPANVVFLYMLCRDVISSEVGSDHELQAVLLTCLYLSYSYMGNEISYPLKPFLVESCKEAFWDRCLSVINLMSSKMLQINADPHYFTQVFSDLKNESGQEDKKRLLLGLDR
Procedure: as §1

CDK9T1 = CDK9T1 (Homo sapiens, UniProt P50750); test: Kinase assay CDK9T1 (Table I); assay type: biochemical; details: read-out: Kinase inhibition, IC50 CDK9T1
CDK9T1, sequence (P50750 whole entry): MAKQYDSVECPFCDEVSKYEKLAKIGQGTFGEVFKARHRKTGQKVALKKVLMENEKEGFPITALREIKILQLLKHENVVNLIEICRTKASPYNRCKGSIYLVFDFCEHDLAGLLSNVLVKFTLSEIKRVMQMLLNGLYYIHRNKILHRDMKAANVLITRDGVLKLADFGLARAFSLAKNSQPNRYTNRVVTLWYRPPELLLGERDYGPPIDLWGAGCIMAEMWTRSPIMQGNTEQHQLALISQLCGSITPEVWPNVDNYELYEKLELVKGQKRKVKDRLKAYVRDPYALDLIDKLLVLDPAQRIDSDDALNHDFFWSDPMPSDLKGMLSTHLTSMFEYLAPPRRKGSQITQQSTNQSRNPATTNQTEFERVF
CDK9T1, sequence (O60563 whole entry partner): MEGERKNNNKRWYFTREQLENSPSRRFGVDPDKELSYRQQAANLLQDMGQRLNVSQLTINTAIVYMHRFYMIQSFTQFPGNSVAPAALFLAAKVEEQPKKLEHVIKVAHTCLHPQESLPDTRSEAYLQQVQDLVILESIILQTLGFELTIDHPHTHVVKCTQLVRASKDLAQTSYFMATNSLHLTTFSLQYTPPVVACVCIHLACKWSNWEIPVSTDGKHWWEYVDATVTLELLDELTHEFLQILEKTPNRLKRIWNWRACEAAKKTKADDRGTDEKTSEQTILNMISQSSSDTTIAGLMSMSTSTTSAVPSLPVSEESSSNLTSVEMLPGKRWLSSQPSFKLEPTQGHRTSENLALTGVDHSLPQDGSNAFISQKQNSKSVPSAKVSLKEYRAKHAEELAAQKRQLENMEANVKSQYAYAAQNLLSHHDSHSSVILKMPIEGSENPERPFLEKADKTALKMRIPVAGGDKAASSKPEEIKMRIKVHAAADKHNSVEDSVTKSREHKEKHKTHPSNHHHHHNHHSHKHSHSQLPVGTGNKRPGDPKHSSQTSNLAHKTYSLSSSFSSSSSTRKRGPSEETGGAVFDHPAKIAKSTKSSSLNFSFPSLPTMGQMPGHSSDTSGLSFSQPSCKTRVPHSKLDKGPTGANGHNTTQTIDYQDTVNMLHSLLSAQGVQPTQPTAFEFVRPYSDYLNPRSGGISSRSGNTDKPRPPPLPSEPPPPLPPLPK
Procedure: [The source words this procedure for another target and reports this target under the same test.] as §1

Aurora A = target: T4, Aurora A (Homo sapiens, UniProt O14965); test: Z'-LYTE kinase assay Aurora A; assay type: biochemical; details: read-out: Kinase inhibition, IC50 Aurora A
T4 construct: purchased Invitrogen PV3612
T4 sequence (O14965 1-403): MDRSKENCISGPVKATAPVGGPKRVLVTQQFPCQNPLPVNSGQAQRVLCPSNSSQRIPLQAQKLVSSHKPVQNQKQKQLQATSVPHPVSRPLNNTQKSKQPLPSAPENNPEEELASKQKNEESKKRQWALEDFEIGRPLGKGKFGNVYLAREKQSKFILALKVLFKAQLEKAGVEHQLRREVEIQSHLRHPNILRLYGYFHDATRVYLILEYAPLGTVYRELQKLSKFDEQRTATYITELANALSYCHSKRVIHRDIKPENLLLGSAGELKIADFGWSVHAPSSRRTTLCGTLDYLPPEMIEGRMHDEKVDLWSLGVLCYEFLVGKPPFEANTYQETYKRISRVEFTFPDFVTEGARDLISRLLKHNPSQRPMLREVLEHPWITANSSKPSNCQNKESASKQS
Procedure: as §1

Aurora B = Aurora B (Homo sapiens, UniProt Q96GD4); test: Kinase assay Aurora B (Table I); assay type: biochemical; details: read-out: Kinase inhibition, IC50 Aurora B
Aurora B, sequence (Q96GD4 whole entry): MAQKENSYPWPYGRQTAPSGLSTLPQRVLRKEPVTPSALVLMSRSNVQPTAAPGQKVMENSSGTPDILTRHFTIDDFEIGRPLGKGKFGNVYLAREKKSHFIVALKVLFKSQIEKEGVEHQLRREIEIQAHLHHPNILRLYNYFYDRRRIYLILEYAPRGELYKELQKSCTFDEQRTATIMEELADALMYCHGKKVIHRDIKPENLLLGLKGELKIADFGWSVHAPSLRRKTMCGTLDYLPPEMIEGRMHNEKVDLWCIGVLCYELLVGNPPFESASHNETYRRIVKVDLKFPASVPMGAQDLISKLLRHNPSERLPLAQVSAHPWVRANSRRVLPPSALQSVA
Procedure: [The source words this procedure for another target and reports this target under the same test.] as §1

HeLa cells = test: 72 h MTT cytotoxicity assay HeLa; assay type: cell-based; details: Homo sapiens
Description: (§2) MIT cytotoxicity assay. The compounds of the invention were subjected to a standard cellular proliferation assay using human cell lines. HeLa cells (Human cervix adenocarcinoma cell line, ATCC NO, CCL-2); A549 cells (Human lung carcinoma cells line, ATCC NO, CCL-185); U2OS cells (Human osteosarcoma cell line, ATCC NO, HTB-96); Eca-109 cells (Human esophageal carcinoma cell line); HepG2 (Human hepatocellular liver carcinoma cell line, ATCC NO, HB-8065); K562 cells (Human chronic myelogenous leukemia cell line, ATCC NO, CCL-243); SK-MEL-28 (Human malignant melanoma cell line, ATCC NO, HTB-72); Molt-4 (Human acute lymphoblastic leukemia cell line, ATCC NO, CRL-1582); H460 (Human large cell lung cancer cell line, ATCC NO, HTB-177); MDA-MB-231 (Human breast adenocarcinoma cell line, ATCC NO, HTB-26); MCF7 (Human breast adenocarcinoma cell line, ATCC NO, HTB-22); ACHN (Human renal cell adenocarcinoma cell line, ATCC NO, CRL-1611); PC-3M (Human prostate adenocarcinoma cell line, ATCC NO CRL-1435); HL60 (Human acute promyelocytic leukemia cell line, ATCC NO, CCL-240); THP-1 (Human acute monocytic leukemia, ATCC NO, TIB-202); Jurkat (Human acute T cell leukemia cell line, ATCC NO, CRL-2063); HCT-116 (Human colorectal carcinoma cell line, ATCC NO, CCL-247); HT-29 (Human colorectal adenocarcinoma cell line, ATCC NO, HTB-38™); WI-38 (Human normal lung cell line, ATCC NO, CCL-75); MRC-5 (Human normal lung cell line, ATCC NO, CCL-171).
(§3) HepG2, MDA-MB-231, WI-38 and MRC-5 cells were obtained from Shanghai Institute of Cell Biology, Chinese Academy of Sciences (Shanghai 200031, China). A549, HeLa, K562, MCF7, ACHN, H460, U2OS, Eca-109, MCF7, HL60, THP-1, Jurkat, HCT-116, HT-29, PC-3M, SK-MEL-28, Molt-4, H460 and […] cells were purchased from ATCC (American Type Culture Collection, USA).
(§4) Standard 72 h MTT (thiazolye blue; 3-[4,5-dimethylthiazol-2-yl]-2,5-diphenyltetrazolium bromide) assays were performed. Briefly, the cell lines used in this study were recovered and cultured according to the conditions recommended. 4000 cells per well were seeded into 96-well plates according to doubling time and incubated overnight at 37° C. Compounds were prepared in DMSO and a ½ dilution series in 100 μl cell culture media, added to cells (in duplicates) with the final DMSO concentration of 0.025%, and incubated for 72 hrs at 37° C. MTT solution (5 mg/ml) was added at 10 μl per well and incubated in the dark at 37° C. for 4 hr. Culture medium and MTT solution was removed. MTT dye was solubilised with 100 μl per well of DMSO with agitation. Absorbance was read at 562 nm and data analyzed using Sigmoid curve-fitting software Origin 6.0 (MicroCal, LLC, USA) to determine IC50 value.

A549 cells = test: 72 h MTT cytotoxicity assay A549; assay type: cell-based; details: Homo sapiens; A549, 72 hrs
Description: as §2, §3, §4

U2OS cells = test: 72 h MTT cytotoxicity assay U2OS; assay type: cell-based; details: Homo sapiens
Description: as §2, §3, §4

Eca-109 cells = test: 72 h MTT cytotoxicity assay Eca-109; assay type: cell-based; details: Homo sapiens; Eca-109, 72 hrs
Description: as §2, §3, §4

HepG2 = test: 72 h MTT cytotoxicity assay HepG2; assay type: cell-based; details: Homo sapiens; HepG2, 72 hrs
Description: as §2, §3, §4

K562 cells = test: 72 h MTT cytotoxicity assay K562; assay type: cell-based; details: Homo sapiens; K562, 72 hrs
Description: as §2, §3, §4

MCF7 = test: 72 h MTT cytotoxicity assay MCF7; assay type: cell-based; details: Homo sapiens; MCF7, 72 hrs
Description: as §2, §3, §4

SK-MEL-28-luc = test: 72 h MTT cytotoxicity assay SK-MEL-28-luc; assay type: cell-based; details: Homo sapiens
Description: as §2, §3, §4

Molt-4-luc = test: 72 h MTT cytotoxicity assay Molt-4-luc; assay type: cell-based; details: Homo sapiens
Description: as §2, §3, §4

H460-luc = test: 72 h MTT cytotoxicity assay H460-luc; assay type: cell-based; details: Homo sapiens, NCI-H460-Luc; H460-luc, 72 hrs; read-out: Cytotoxicity, MTT 72 hrs, IC50 H460-luc
Description: as §2, §3, §4

MDA-MB-231-luc = test: 72 h MTT cell viability MDA-MB-231-luc; assay type: cell-based; details: Homo sapiens
Description: as §2, §3, §4

ACHN-luc = test: 72 h MTT cell viability ACHN-luc; assay type: cell-based; details: Homo sapiens
Description: as §2, §3, §4

WI-38 = test: 72 h MTT cell viability WI-38 (normal lung); assay type: cell-based; details: Homo sapiens; WI-38, normal lung cell line
Description: as §2, §3, §4

PC-3M-luc = test: 72 h MTT cell viability PC-3M-luc; assay type: cell-based; details: Homo sapiens
Description: as §2, §3, §4

HL-60 = test: 72 h MTT cell viability HL-60; assay type: cell-based; details: Homo sapiens
Description: as §2, §3, §4

T1 sequence (P06493 whole entry): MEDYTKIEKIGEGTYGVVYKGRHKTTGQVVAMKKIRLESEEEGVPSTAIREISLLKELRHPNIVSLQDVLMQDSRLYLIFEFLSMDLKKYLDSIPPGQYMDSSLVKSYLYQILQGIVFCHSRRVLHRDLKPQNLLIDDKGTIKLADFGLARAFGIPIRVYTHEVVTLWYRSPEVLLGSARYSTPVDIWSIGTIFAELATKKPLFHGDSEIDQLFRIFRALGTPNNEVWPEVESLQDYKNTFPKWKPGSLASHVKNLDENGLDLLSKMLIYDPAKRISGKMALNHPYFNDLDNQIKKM
T1 sequence (P14635 whole entry partner): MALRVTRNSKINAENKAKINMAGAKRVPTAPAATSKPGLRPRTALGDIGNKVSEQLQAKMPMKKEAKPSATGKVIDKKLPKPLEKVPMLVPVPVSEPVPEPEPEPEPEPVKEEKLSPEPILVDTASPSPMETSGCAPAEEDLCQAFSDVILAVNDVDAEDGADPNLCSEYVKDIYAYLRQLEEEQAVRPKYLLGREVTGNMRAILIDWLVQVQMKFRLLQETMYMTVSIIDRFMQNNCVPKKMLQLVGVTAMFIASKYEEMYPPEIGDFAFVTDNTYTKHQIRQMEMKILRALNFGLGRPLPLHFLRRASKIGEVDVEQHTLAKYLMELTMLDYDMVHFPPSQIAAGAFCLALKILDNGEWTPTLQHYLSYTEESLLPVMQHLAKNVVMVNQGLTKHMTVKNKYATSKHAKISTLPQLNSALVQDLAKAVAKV

pIC50 (CDK1/cyclinB)	pIC50 (CDK2/cyclinA)	pIC50 (CDK5/p35)	pIC50 (CDK9T1)	pIC50 (Aurora A)	pIC50 (Aurora B)	pIC50 (MDA-MB-231-luc)	pIC50 (ACHN-luc)	Compound	pIC50 (HeLa cells)	pIC50 (A549 cells)	pIC50 (U2OS cells)	pIC50 (Eca-109 cells)	pIC50 (HepG2)	pIC50 (K562 cells)	pIC50 (MCF7)	pIC50 (SK-MEL-28-luc)	pIC50 (Molt-4-luc)	pIC50 (H460-luc)	pIC50 (WI-38)	further results
5.87	6.57	5.50	6.96	6.54	5.84	5.07	5.46	CCn1cc(-c2ccnc(Nc3cccc(C(N)=O)c3)n2)c2cccnc21 [Compound 19, 3-(4-(1-Ethyl-1H-pyrrolo[2,3-b]pyridin-3-yl)pyrimidin-2-ylamino)benzamide]	5.36	5.46	5.02	< 5.00	5.85	4.81	5.40	< 5.00	5.18	5.44	< 5.00	
< 5.00	5.78	< 5.00	7.24	6.21	6.49	5.69	4.86	CCCn1cc(-c2ccnc(Nc3ccc(S(N)(=O)=O)cc3)n2)c2nc(Cl)cc(C)c21 [Compound 39, 4-(4-(5-Chloro-7-methyl-1-propyl-1H-pyrrolo[3,2-b]pyridin-3-yl)pyrimidin-2-ylamino)benzenesulfonamide]	5.48	6.38	5.90	5.43	7.00	5.33	< 5.00	5.47	5.28	5.99		pIC50 (PC-3M-luc): < 5.00; pIC50 (HL-60): 5.90

Further lines, the compound ahead of its results:

Compound	pIC50 (CDK1/cyclinB)	pIC50 (CDK2/cyclinA)	pIC50 (CDK5/p35)	pIC50 (CDK9T1)	pIC50 (Aurora A)	pIC50 (Aurora B)	pIC50 (MDA-MB-231-luc)	pIC50 (ACHN-luc)	pIC50 (HeLa cells)	pIC50 (A549 cells)	pIC50 (U2OS cells)	pIC50 (Eca-109 cells)	pIC50 (HepG2)	pIC50 (K562 cells)	pIC50 (MCF7)	pIC50 (SK-MEL-28-luc)	pIC50 (Molt-4-luc)	pIC50 (H460-luc)	pIC50 (WI-38)	further results
Cn1cc(-c2ccnc(Nc3ccc(O)cc3)n2)c2ccccc21 [Compound 2, 4-(4-(1-Methyl-1H-indol-3-yl)pyrimidin-2-ylamino)phenol]	6.13	6.52	6.02	7.37	6.82	6.70	5.21	4.63	5.31	5.08	5.13	4.84	5.22	5.21	5.02	5.20	5.20	5.19	< 5.00	
CCCn1cc(-c2ccnc(Nc3cccc([N+](=O)[O-])c3)n2)c2cccnc21 [Compound 17, N-(3-Nitrophenyl)-4-(1-propyl-1H-pyrrolo[2,3-b]pyridin-3-yl)pyrimidin-2-amine]	5.12	6.33	< 5.00	6.80	5.94	< 5.00	5.58	5.61	5.37	5.66	5.31	5.22	5.92	5.64	5.31	5.26	5.20	5.60	< 5.00	
Cn1cc(-c2ccnc(Nc3cccc(O)c3)n2)c2ccccc21 [Compound 1, 3-(4-(1-Methyl-1H-indol-3-yl)pyrimidin-2-ylamino)phenol]	5.60	6.27	5.58		6.55	6.47	5.20	5.01	5.33	5.22	5.22	4.85	5.34	5.32	4.99	5.19	5.19	5.21	< 5.00	
